Active and inactive are the calls of the source. The rule behind the calls is not given here.
Experiments:
[1] = biological target: T1, Bromodomain-containing protein 3 (Homo sapiens, UniProt Q15059); assay: Binding affinity to recombinant human BRD3 BD1 (24 to 144 residues) assessed as inhibition constant by fluorescence polarization binding assay
[2] = biological target: T1, Bromodomain-containing protein 3; assay: Binding affinity to recombinant human BRD3 BD2 (306 to 417 residues) assessed as inhibition constant by fluorescence polarization binding assay
[3] = test system: MM1.S; assay: Antiproliferative activity against human MM1.S cells assessed as cell growth inhibition measured after 4 days by CellTitre-Glo assay; type: functional, cell-based; details: 96 h
[4] = test system: MV4-11; assay: Antiproliferative activity against human MV4-11 cells assessed as cell growth inhibition measured after 3 days by CellTitre-Glo assay; type: functional, cell-based; details: MV4-11, 72 h
[5] = test system: MM1.S; assay: Downregulation of c-Myc protein expression in human MM1.S cells at 0.1 to 30 nM measured after 24 hrs by Western blot analysis; type: functional, cell-based; details: dose 0.1-30 nM
[6] = biological target: T2, Protein cereblon/Bromodomain-containing protein 4 (Homo sapiens) (UniProt O60885+Q96SW2); assay: PROTAC activity at CRBN/BRD4-L in human MM1.S cells assessed as induction of protein degradation at 30 nM by Western blot analysis; type: cell-based; details: TDE = time-dependent effect
[7] = biological target: T3, Protein cereblon/Bromodomain-containing protein 3 (Homo sapiens) (UniProt Q15059+Q96SW2); assay: PROTAC activity at CRBN/BRD3 in human MM1.S cells assessed as induction of protein degradation at 30 nM by Western blot analysis; type: cell-based; details: TDE = time-dependent effect
[8] = biological target: T3, Protein cereblon/Bromodomain-containing protein 3 (Homo sapiens); assay: PROTAC activity at CRBN/BRD3 in human MM1.S cells assessed as induction of protein degradation at 1 uM measured after 1 to 24 hrs by Western blot analysis; type: cell-based; details: time 1-24 hrs
[9] = biological target: T4, Protein cereblon/Bromodomain-containing protein 2 (Homo sapiens) (UniProt P25440+Q96SW2); assay: PROTAC activity at CRBN/BRD2 in human MM1.S cells assessed as induction of protein degradation at 1 uM measured after 1 to 24 hrs by Western blot analysis; type: cell-based; details: time 1-24 hrs
[10] = biological target: T2, Protein cereblon/Bromodomain-containing protein 4 (Homo sapiens); assay: PROTAC activity at CRBN/BRD4-L in human MM1.S cells assessed as induction of protein degradation at 1 uM measured after 1 to 24 hrs by Western blot analysis; type: cell-based; details: time 1-24 hrs
[11] = biological target: T2, Protein cereblon/Bromodomain-containing protein 4 (Homo sapiens); assay: PROTAC activity at CRBN/BRD4-S in human MM1.S cells assessed as induction of protein degradation at 1 uM measured after 1 to 24 hrs by Western blot analysis; type: cell-based; details: time 1-24 hrs
[12] = test system: MM1.S; assay: Induction of cell cycle arrest in human MM1.S cells assessed as accumulation of cells at G1 phase incubated for 24 hrs by flow cytometry analysis; type: functional, cell-based; details: dose 1-300 nM
[13] = Tmax in C57 mouse at 3 mg/kg, iv measured upto 24 hrs by LC-MS/MS analysis; type: ADME, organism-based; details: in vivo
[14] = Tmax in C57 mouse at 3 mg/kg, po measured upto 24 hrs by LC-MS/MS analysis; type: ADME, organism-based; details: in vivo
[15] = Half life in C57 mouse at 3 mg/kg, iv measured upto 24 hrs by LC-MS/MS analysis; type: ADME, organism-based; details: in vivo
[16] = Cmax in C57 mouse at 3 mg/kg, iv measured upto 24 hrs by LC-MS/MS analysis; type: ADME, organism-based; design: dose 3 mg/kg, time < 24 hrs, route iv; details: in vivo
[17] = Cmax in C57 mouse at 3 mg/kg, po measured upto 24 hrs by LC-MS/MS analysis; type: ADME, organism-based; design: dose 3 mg/kg, time < 24 hrs, route po; details: in vivo
[18] = AUC (0 to t) in C57 mouse at 3 mg/kg, iv measured upto 24 hrs by LC-MS/MS analysis; type: ADME, organism-based; design: dose 3 mg/kg, time < 24 hrs, route iv; details: in vivo
[19] = AUC (0 to t) in C57 mouse at 3 mg/kg, po measured upto 24 hrs by LC-MS/MS analysis; type: ADME, organism-based; design: time < 24 hrs, dose 3 mg/kg, route po; details: in vivo
[20] = Clearance in C57 mouse at 3 mg/kg, iv measured upto 24 hrs by LC-MS/MS analysis; type: ADME, organism-based; details: in vivo
[21] = Clearance in C57 mouse at 3 mg/kg, po measured upto 24 hrs by LC-MS/MS analysis; type: ADME, organism-based; details: in vivo
[22] = Oral bioavailability in C57 mouse at 3 mg/kg measured upto 24 hrs by LC-MS/MS analysis; type: ADME, organism-based; details: in vivo
[23] = test system: MM1.S; assay: Antitumor activity against human MM1.S cells xenografted in SCID mouse assessed as tumor growth inhibition at 1 mg/kg, iv administered once daily via tail vein for 14 consecutive days and measured twice a week relative to control; type: functional; details: 336 h, time 14 day, read-out: TGI
[24] = test system: MM1.S; assay: Antitumor activity against human MM1.S cells xenografted in SCID mouse assessed as tumor growth inhibition at 5 mg/kg, iv administered once daily via tail vein for 8 consecutive days and measured twice a week relative to control; type: functional; details: 192 h, time 8 day, read-out: TGI
[25] = Toxicity in SCID mouse xenografted with human MM1.S cells assessed as effect on body weight at 1 mg/kg, iv administered once daily via tail vein for 14 consecutive days and measured twice a week; type: organism-based; details: in vivo, 336 h, time 14 day
[26] = Toxicity in SCID mouse xenografted with human MM1.S cells assessed as loss of body weight at 5 mg/kg, iv administered once daily via tail vein for 8 consecutive days and measured twice a week; type: organism-based; details: in vivo, 192 h, time 8 day
[27] = biological target: T3, Protein cereblon/Bromodomain-containing protein 3 (Homo sapiens); assay: In vivo PROTAC activity at CRBN/BRD3 in SCID mouse xenografted with human MM1.S cells assessed as reduction in BRD3 protein level in tumor at 1 to 5 mg/kg, iv measured after 6 hrs by Western blot analysis; type: functional, organism-based; details: dose 1-5 mg/kg
[28] = biological target: T2, Protein cereblon/Bromodomain-containing protein 4 (Homo sapiens); assay: In vivo PROTAC activity at CRBN/BRD4-L in SCID mouse xenografted with human MM1.S cells assessed as reduction in BRD4-L protein level in tumor at 1 to 5 mg/kg, iv measured after 6 hrs by Western blot analysis; type: functional, organism-based; details: dose 1-5 mg/kg
[29] = biological target: T4, Protein cereblon/Bromodomain-containing protein 2 (Homo sapiens); assay: In vivo PROTAC activity at CRBN/BRD2 in SCID mouse xenografted with human MM1.S cells assessed as reduction in BRD2 protein level in tumor at 1 to 5 mg/kg, iv measured after 6 hrs by Western blot analysis; type: functional, organism-based; details: dose 1-5 mg/kg
[30] = biological target: T2, Protein cereblon/Bromodomain-containing protein 4 (Homo sapiens); assay: In vivo PROTAC activity at CRBN/BRD4-S in SCID mouse xenografted with human MM1.S cells assessed as reduction in BRD4-S protein level in tumor at 1 to 5 mg/kg, iv measured after 6 hrs by Western blot analysis; type: functional, organism-based; details: dose 1-5 mg/kg
[31] = biological target: T3, Protein cereblon/Bromodomain-containing protein 3 (Homo sapiens); assay: In vivo PROTAC activity at CRBN/BRD3 in SCID mouse xenografted with human MM1.S cells assessed as reduction in BRD3 protein level in tumor at 5 mg/kg, iv measured after 24 hrs by Western blot analysis; type: functional, organism-based
[32] = biological target: T3, Protein cereblon/Bromodomain-containing protein 3 (Homo sapiens); assay: In vivo PROTAC activity at CRBN/BRD3 in SCID mouse xenografted with human MM1.S cells assessed as reduction in BRD3 protein level in tumor at 1 mg/kg, iv measured after 24 hrs by Western blot analysis; type: functional, organism-based
[33] = biological target: T4, Protein cereblon/Bromodomain-containing protein 2 (Homo sapiens); assay: In vivo PROTAC activity at CRBN/BRD2 in SCID mouse xenografted with human MM1.S cells assessed as reduction in BRD2 protein level in tumor at 5 mg/kg, iv measured after 24 hrs by Western blot analysis; type: functional, organism-based
[34] = biological target: T2, Protein cereblon/Bromodomain-containing protein 4 (Homo sapiens); assay: In vivo PROTAC activity at CRBN/BRD4-S in SCID mouse xenografted with human MM1.S cells assessed as reduction in BRD4-S protein level in tumor at 5 mg/kg, iv measured after 24 hrs by Western blot analysis; type: functional, organism-based
[35] = biological target: T2, Protein cereblon/Bromodomain-containing protein 4 (Homo sapiens); assay: In vivo PROTAC activity at CRBN/BRD4-L in SCID mouse xenografted with human MM1.S cells assessed as reduction in BRD4-L protein level in tumor at 5 mg/kg, iv measured after 24 hrs by Western blot analysis; type: functional, organism-based
[36] = test system: MM1.S; assay: Downregulation of c-Myc expression in human MM1.S cells at 30 nM measured after 1 to 24 hrs by Western blot analysis; type: functional, cell-based; details: time 1-24 hrs

T3 sequence (Q15059 2-726 limits assumed): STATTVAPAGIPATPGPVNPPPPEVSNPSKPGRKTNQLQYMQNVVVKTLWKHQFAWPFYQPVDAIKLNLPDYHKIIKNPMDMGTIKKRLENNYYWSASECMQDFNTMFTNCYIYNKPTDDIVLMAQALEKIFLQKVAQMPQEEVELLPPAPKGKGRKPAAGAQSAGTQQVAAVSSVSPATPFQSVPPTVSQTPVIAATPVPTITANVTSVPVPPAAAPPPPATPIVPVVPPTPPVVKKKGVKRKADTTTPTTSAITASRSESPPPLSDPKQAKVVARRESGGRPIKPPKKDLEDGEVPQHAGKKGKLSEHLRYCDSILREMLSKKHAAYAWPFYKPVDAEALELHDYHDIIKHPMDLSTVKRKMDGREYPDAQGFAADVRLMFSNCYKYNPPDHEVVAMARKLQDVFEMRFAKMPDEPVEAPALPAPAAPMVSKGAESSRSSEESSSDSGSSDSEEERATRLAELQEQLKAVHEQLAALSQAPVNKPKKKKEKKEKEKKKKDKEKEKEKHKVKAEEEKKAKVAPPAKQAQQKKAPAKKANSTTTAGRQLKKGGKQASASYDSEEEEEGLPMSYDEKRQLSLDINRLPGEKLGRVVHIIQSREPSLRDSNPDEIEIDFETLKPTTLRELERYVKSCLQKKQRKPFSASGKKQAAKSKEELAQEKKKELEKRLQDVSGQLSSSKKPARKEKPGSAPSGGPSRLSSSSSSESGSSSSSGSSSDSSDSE
T3 sequence (Q96SW2 whole entry partner): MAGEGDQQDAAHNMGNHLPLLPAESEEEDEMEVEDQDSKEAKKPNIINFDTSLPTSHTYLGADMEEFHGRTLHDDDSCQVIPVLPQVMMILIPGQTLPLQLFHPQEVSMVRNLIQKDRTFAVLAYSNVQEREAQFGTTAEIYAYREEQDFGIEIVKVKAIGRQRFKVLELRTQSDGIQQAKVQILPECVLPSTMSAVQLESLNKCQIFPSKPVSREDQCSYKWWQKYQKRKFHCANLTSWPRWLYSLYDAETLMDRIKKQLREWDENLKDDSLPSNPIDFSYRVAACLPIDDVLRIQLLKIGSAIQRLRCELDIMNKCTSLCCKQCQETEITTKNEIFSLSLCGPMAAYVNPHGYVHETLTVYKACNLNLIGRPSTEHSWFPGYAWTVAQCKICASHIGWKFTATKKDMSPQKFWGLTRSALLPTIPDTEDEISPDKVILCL
T2 sequence (Q96SW2 whole entry, looked up, other chains not shown): as the sequence (Q96SW2 whole entry partner) above
T4 sequence (P25440 whole entry, looked up): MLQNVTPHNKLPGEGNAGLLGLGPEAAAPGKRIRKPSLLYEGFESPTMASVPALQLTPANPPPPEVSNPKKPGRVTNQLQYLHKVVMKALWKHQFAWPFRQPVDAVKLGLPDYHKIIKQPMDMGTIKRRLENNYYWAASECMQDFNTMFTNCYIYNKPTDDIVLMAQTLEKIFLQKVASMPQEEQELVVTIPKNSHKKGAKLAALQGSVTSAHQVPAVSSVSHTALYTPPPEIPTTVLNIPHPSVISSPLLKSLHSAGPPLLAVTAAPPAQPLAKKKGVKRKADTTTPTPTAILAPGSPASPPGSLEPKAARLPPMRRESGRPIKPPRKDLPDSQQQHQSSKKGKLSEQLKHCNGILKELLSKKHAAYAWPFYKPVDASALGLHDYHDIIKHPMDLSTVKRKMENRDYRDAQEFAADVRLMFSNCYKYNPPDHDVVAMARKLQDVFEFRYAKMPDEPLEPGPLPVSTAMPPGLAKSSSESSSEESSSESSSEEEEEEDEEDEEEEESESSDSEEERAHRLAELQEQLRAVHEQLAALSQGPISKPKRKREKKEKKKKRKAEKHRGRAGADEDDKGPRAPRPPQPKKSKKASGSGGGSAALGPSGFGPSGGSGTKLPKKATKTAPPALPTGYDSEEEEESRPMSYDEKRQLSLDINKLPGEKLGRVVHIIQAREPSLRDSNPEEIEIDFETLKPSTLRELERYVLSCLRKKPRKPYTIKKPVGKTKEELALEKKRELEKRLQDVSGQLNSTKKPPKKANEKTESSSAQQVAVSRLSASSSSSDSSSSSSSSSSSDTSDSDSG
T4 sequence (Q96SW2 whole entry, looked up): as the sequence (Q96SW2 whole entry partner) above
T1 sequence (Q15059 whole entry, the tested form may be a part): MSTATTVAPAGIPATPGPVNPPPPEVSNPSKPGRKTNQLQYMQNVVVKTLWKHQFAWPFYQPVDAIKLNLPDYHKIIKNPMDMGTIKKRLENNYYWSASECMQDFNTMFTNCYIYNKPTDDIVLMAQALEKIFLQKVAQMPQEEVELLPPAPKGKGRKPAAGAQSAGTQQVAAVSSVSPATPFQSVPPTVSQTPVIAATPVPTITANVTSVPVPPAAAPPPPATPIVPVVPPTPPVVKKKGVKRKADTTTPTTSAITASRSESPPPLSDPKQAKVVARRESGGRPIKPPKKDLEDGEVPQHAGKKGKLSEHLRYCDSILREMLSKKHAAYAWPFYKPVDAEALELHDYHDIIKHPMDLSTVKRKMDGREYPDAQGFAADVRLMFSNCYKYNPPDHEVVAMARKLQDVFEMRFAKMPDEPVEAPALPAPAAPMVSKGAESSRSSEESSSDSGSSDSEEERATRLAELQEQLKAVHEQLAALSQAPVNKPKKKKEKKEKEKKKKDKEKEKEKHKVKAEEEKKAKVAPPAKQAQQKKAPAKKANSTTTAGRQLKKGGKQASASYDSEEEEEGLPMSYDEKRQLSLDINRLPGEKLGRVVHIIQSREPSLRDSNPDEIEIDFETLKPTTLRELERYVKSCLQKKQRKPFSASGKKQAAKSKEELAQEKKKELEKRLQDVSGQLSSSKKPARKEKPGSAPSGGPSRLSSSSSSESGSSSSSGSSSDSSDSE

SMILES: Cc1nnc2n1-c1ccc(-c3ccc(CN(C)CCCCc4cccc5c4CN(C4CCC(=O)NC4=O)C5=O)cc3)cc1C(Nc1ccc(Cl)cc1)CC2 (stereo unspecified)
- Ki [1]: 0.0169 µM
- Ki [2]: 0.0028 µM
- IC50 [3]: 0.0854 µM
- IC50 [4]: 0.00746 µM
- Activity [5]: Active
- Activity [6]: Tde
- Activity [7]: Tde
- Activity [8]: Active
- Activity [9]: Active
- Activity [10]: Active
- Activity [11]: inactive
- Activity [12]: Dose-Dependent Effect
- Tmax [13]: 6 min
- Tmax [14]: 24 min
- half-life [15]: 30 min
- Cmax [16]: 7410 ng/mL
- Cmax [17]: 51 ng/mL
- AUCt [18]: 2961 ng·h/mL
- AUCt [19]: 26 ng·h/mL
- clearance [20]: 16.9 mL/min/kg
- CL/F [21]: 1240 mL/min/kg
- F [22]: 2.14%
- inhibition in vivo at 1 mg/kg [23]: 40%
- inhibition in vivo at 5 mg/kg [24]: 64%
- Activity [25]: Non-Toxic
- Activity [26]: Toxic
- Activity [27]: Active
- Activity [28]: Active
- Activity [29]: inactive
- Activity [30]: inactive
- Activity [31]: Active
- Activity [32]: inactive
- Activity [33]: inactive
- Activity [34]: inactive
- Activity [35]: inactive
- Activity [36]: Active
